The values below come from US4056625A, “Pesticidal compositions containing benzodioxole derivatives and methods of combating pests” (priority 1972, dated 1977).

Values after ≈ are worked out from the molar mass of the structure shown. Like-named read-outs stand apart in the source and are kept apart here. Some results are limits rather than exact numbers.

What is called LC50 is the concentration that kills 50% of the test population. The term LD50 denotes the dose expected to kill half of the subjects tested. Read a low LD50 as a more toxic substance.

Data set [1] relates to adult red spider mites (Tetranychus telarius). The data set can be described thus: LC50 against adult red spider mites on sprayed French beans (Example 73). The following applies: read-out: LC50 value. The format is in vivo. As to the method: (§1) If complete kill was obtained at the highest dosage rate, the test was repeated using a logarithmically reducing dose regime until less than 50% mortality was recorded. The LC50 was then calculated from the line of best fit from the data plotted on log/provit analysis paper.
(§2) Similarly LC50 values were obtained against various pests as described in Examples 70-73 where, however, the LC50 values are abbreviated on a 0-6 scale where
Similarly, LC50 values were obtained for each of Compounds 1, 2, 4, 5 and 6 against adult red spider mites (Tetranychus telarius), of the order Acarina. The tests were carried out by spraying infected French beans with a 50% acetone water solution of the compound, containing 500 ppm of Lissapol NX as a wetting agent, and recording the mortality after 48 hours. The highest dosage rate employed was 1000 ppm which is equivalent to 10 lb/acre (11.20 kg/ha).

The subject of another data set is rats and mice. The data set can be described thus: Mammalian toxicity (overall comparison). It counts as in vivo. The following applies: compared with compound 5. How it is done: (§3) Mammalian toxicity was assessed by measuring the acute oral LD50 to rats and mice. Componds were dissolved or suspended in a 0.4% tragacanth solution and administered by stomach tube to the test animal. The mice used were 10 to 15 g weanlings of the Carshalton CFW strain whilst the rats were 30 to 40 g weanlings of Wystar strain. Three replicates per dosage rate were employed and the mortality was recorded daily for up to 5 days. The LD50 values were calculated as for those for insecticidal and acaricidal activity above.

Data set [2] concerns adult female houseflies (Musca domestica). The data set can be described thus: Housefly mortality on treated filter papers (Examples 32-40). The format is in vivo. Particulars: 100 milligrams per square foot, after 24 hours. From the text:
9 centimeter diameter filter papers treated with aqueous acetone solutions of each of the compounds
at rates equivalent to 100 milligrams per square foot (100 mgm./0.09 m^2.) of active ingredient were placed in 9 centimeter diameter Petri dishes. Batches of adult female houseflies (Musca domestica) lightly anaesthetised with carbon dioxide were then introduced into the dishes and a glass lid placed over each.

A further data set relates to rats. The data set can be described thus: Acute oral LD50 to rats (Example 76). Particulars: rat female, by stomach tube in 0.4% tragacanth, up to 5 days. The format is in vivo, rat (Wystar strain). How it is done: as §3
A short description of data set [3]: Acute oral LD50 to rats (Example 76). Particulars: in vivo, po; rat male, by stomach tube in 0.4% tragacanth, up to 5 days. The format is in vivo, rat (Wystar strain). How it is done:
as §3

Data set [4] concerns larvae of the sheep maggot fly (Lucilia sericata). The data set can be described thus: LC50 against sheep maggot fly larvae on dental rolls (Example 71). It counts as in vivo. The following applies: Lucilia sericata, read-out: LC50 value. As to the method: as §1, §2
Similarly, LC50 values were obtained for each of Compounds 1, 2, 3, 4, 5 and 6 against larvae of the sheep maggot fly (Lucilia sericata), of the order Diptera. The tests were carried out by placing newly hatched larvae on dental rolls contained in glass vials and soaked with 1 ml of blood serum containing the compound. The mortality was assessed after 24 hours. The highest dosage rate employed was 1000 ppm.

Data set [5] relates to adult female houseflies (Musca domestica). The data set can be described thus: LC50 against adult female houseflies on filter papers (Example 70). It counts as in vivo. Particulars: for LC50 value: adult female houseflies, 24 hours, 0-6 scale (mg/ft^2). How it is done: as §1, §2
LC50 values were obtained for each of Compounds 1, 2, 3, 4, 5 and 6 against adult female houseflies (Musca domestica), of the order Diptera. The tests were carried out by adding acetone solutions of the compounds to 9 cm diameter filter papers in the base of 9 cm diameter crystallising dishes, placing the houseflies in the dishes after the acetone had evaporated, closing the dishes with Petri dish lids and counting the mortality after 24 hours. The highest dosage rate employed was 1000 mg/ft^2 (10.65 g/m^2).

Data set [6] can be described thus: Acute oral LD50 to mice (Example 76). Details: species or system mouse (Carshalton CFW strain). Particulars: in vivo, mouse, by stomach tube in 0.4% tragacanth, up to 5 days. How it is done:
as §3

Data set [7] relates to yellow fever mosquito (Aedes aegypti). The data set can be described thus: Persistency against yellow fever mosquito on treated glass plates (Example 75). It counts as in vivo. Particulars: 100 mg/ft^2 (1.065 g/m^2), adult female mosquitos, 7 day intervals until less than 50% mortality. How it is done: Persistency was measured against yellow fever mosquito (Aedes aegypti), of the order Diptera, by treating glass plates with acetone solutions of the compounds listed below to produce a deposit equivalent to 100 mg/ft^2 (1.065 g/m^2), and caging adult female mosquitos on these surfaces for 24 hours at 7 day intervals until less than 50% mortality was recorded.

A further data set in a line: Solubility. It counts as physicochemical. Particulars: compared with compound 5.
Data set [8] concerns domestic and public health insect pests. The data set can be described thus: Indoor treatment against domestic and public health insect pests. The format is in vivo. Particulars: 200 mg per square meter, aqueous spray containing 0.25% active ingredient; ants, bed bugs, fleas, houseflies, silverfish, mosquitoes, wasps, carpet beetles, crickets, cockroaches. From the text:
In a preferred application, the compounds and especially 2,2-dimethyl-1,3-benzodioxol-4-yl N-methylcarbamate are used to combat domestic and public health insect pests. For this use, the compounds are generally applied indoors, e.g. in buildings or on ships, for example in food preparation or storage areas e.g. in houses, flats, warehouses and ships. The compounds are suitably applied at a rate of 50-2000, preferably about 50-1,000, for example 200, mg per square meter.

In data set [9] the test system is first stage larvae of the cattle tick, Boophilus microplus. The data set can be described thus: Cattle tick larvae in treated filter paper packets (Example 65). The format is in vivo. The following applies: 30 parts per million, 25° C, 24 hours. As to the method: Filter papers, diameter 9 cm., were treated with 1 ml. of acetone solutions containing 30 parts per million of 2,2-dimethyl-1,3-benzodioxol-4-yl N-methylcarbamate or 7-chloro-2,2-dimethyl-1,3-benzodioxol-4-yl N-methylcarbamate. When they had dried, they were folded into quadrant shaped packets, infested with 20 first stage larvae of the cattle tick, Boophilus microplus, closed with a metal clip and kept at 25° C for 24 hours.

In data set [10] the test system is 2nd stage nymph of the German cockroach (Blattella germanica). The data set can be described thus: LC50 against German cockroach nymphs in treated glass tubes (Example 69). It counts as in vivo. How it is done: Compounds 2 and 4 and also 2,2-dimethyl-1,3- benzodioxol-4-yl N-methylcarbamate(compound 5) and 2,2-dimethyl-1,3-benzodioxol-4-yl N-acetyl-N-methylcarbamate (compound 6) were tested for activity against the 2nd stage nymph of the German cockroach (Blattella germanica), of the order Orthoptera, by treating the walls of glass tubes (9.0 cm high × 4.5 cm diameter) with acetone solutions of the compounds and after the acetone had evaporated caging the insects in the tubes for 48 hours. The highest dosage rate employed was 50 mg/ft^2 (532 mg/m^2).
as §1
The LC50 values are abbreviated on a 0-6 scale where

Data set [11] relates to adult apterous vetch aphids (Megoura viciae). The data set can be described thus: Vetch aphids on sprayed field beans (Examples 49 and 50). It counts as in vivo. The following applies: 100 parts per million, 50 gallons per acre, 24 hours. From the text: Aqueous suspensions containing 100 parts per million of 2,2-dimethyl-1,3-benzodioxol-4-yl N-methylcarbamate and 2,2-dimethyl-1,3-benzodioxol-4-yl N-acetyl-N-methylcarbamate were sprayed at a rate equivalent to 50 gallons per acre (585 liters per hectare) on young field beans (Vicia faba) infested with adult apterous vetch aphids (Megoura viciae). After treatment the plants were enclosed in glass cages with gauze tops for ventilation.

For data set [12], the system named is first instar larvae of the sheep blowfly (Lucilia sericata). The data set can be described thus: Sheep blowfly larvae on treated cotton wool pads (Examples 53-60). It counts as in vivo. The following applies: 1/2 ml. of acetone solution on cotton wool pads, after 24 hours. As to the method: Cylindrical pads of cotton wool, approximate diameter 1 cm., length 2 cms. were treated with 1/2 ml. of acetone solutions of the following carbamates:
After leaving for 12 hours to dry, the pads were treated with 1 ml. of sheep blood serum and infested with 20 first instar larvae of the sheep blowfly (Lucilia sericata). After 24 hours, the blowflies were examined and found to be all dead; insects similarly infested on untreated pads were unaffected.

The test system of data set [13] is second instar larvae of the cabbage white butterfly (Pieris brassicae). The data set can be described thus: Cabbage white butterfly larvae on treated cabbage leaf discs (Examples 41-48). It counts as in vivo. The following applies: 10, 5, 1, 0.5 and 0.25 pounds per acre, three replications, after 48 hours. From the text: 7 centimeter diameter circular discs of cabbage leaves were painted with 1 milliliter aqueous acetone solutions of each of the following compounds:
in each case at concentrations equivalent to leaf applications of 10, 5, 1, 0.5 and 0.25 pounds per acre (11.2, 5.6, 1.12, 0.56 and 0.28 kg./hectare) of active ingredient. When the deposit on the leaf discs had dried, each leaf disc was placed in a 9 centimeter diameter Petri dish, infested with ten second instar larvae of the cabbage white butterfly (Pieris brassicae) and covered with a glass lid. Three replications were made with each compound at each concentration level.

Turning to `CC(=O)N(C)C(=O)Oc1cccc2c1OCO2` [Compound 1, 1,3-benzodioxol-4-yl N-acetyl-N-methylcarbamate], the LC50 in data set [1] (48 h) was 100 to 299 µg/mL (≈ 422 to 1260 µM); in [4] (24 h), 30 to 99 µg/mL (≈ 126 to 417 µM). In the data set with rats and mice, the “mammalian toxicity (in words)” value is given as “lower mammalian toxicity than does compound 5”. Also, in data set [2], the mortality of houseflies entry is reported as “all found to be dead”. Further, the “Acute oral LD50, rat female” value with rats is > 1000 mg/kg body wt. In addition, the figures for the LD50 at 120 h in data set [3] and in data set [6] were > 1000 mg/kg and > 4000 mg/kg, respectively. Moreover, the LC50 value in data set [5] was 5 (3-9 mg/ft^2 (32-106 mg/m^2)). Besides, the “activity against houseflies (in words)” value in data set [5] (compared with compound 5) was “as good or better activity against houseflies than does compound 5”. The same molecule returned a Persistency in [7] of 35 days. Moreover, the “solubility in organic solvents (in words)” value in “Solubility” is on record as “higher solubility in organic solvents than is compound 5”.

Take `CNC(=O)Oc1cccc2c1OC(C)(C)O2` [Compound 5, 2,2-dimethyl-1,3-benzodioxol-4-yl N-methylcarbamate]: the LC50 in [1] (adult red spider mites, 48 hours, 0-6 scale (ppm)) is > 1000 µg/mL; in data set [4] (sheep maggot fly larvae, 24 hours, 0-6 scale (ppm)) it was 3 to 9 µg/mL (≈ 13.4 to 40.3 µM). The “effectiveness against domestic and public health pests (in words)” value in data set [8] is given as “effective against a wide range of such pests”. In addition, the mortality of houseflies entry in [2] is listed as “all found to be dead”. The LD50 at 120 h in [3] and in data set [6] was 45 mg/kg throughout. Also, the LC50 value in [5] is 4 (10-29 mg/ft^2 (107-310 mg/m^2)); in data set [10] (2nd stage nymph German cockroach, 48 hours, 0-6 scale) it was 5 (0.15-0.5 mg/ft^2 (1.6-5.3 mg/m^2)). In data set [9], the “mortality of cattle tick larvae” value is “all the ticks in the treated filter papers were dead”. Moreover, the “activity against cockroaches (in words)” value in data set [10] (cockroaches) was “outstandingly good activity against cockroaches”. In data set [11], the “kill of vetch aphids” value was “complete kill of the aphids in 24 hours”. For the same molecule, in [12], the “mortality of sheep blowfly larvae” value is reported as “all dead”. Also, the “mortality of cabbage white butterfly larvae” value in data set [13] is “all found to be dead”.
